Data published in ChEMBL document CHEMBL1157496, “Design, synthesis, and evaluation of a novel 4-aminomethyl-4-fluoropiperidine as a T-type Ca2+ channel antagonist” (J Med Chem, 2008).

Assays:
[1] = Volume of distribution at steady state in dog at 0.5 mg/kg, iv; assay type: ADME, organism-based, Canis lupus familiaris; design: dose 0.5 mg/kg, route intravenous; conditions: in vivo, read-out: Vdss
Rattus norvegicus [2] = species: Rattus norvegicus; test: Decrease in seizure time in Wistar albino Glaxo rat model of absence epilepsy after 4 hrs; assay type: functional
[3] = Volume of distribution at steady state in rat at 1 mg/kg, iv; assay type: ADME, organism-based; design: dose 1 mg/kg, route intravenous; conditions: in vivo, read-out: Vdss
[4] = Protein binding in monkey plasma; assay type: ADME, cell-free, Macaca mulatta; conditions: rhesus monkey, read-out: PPB (converted)
Canis familiaris [5] = test: Toxicity in dog assessed as effect on urinary excretion of sodium and potassium at 20 mg/kg, po after 3 hrs; assay type: organism-based, Canis lupus familiaris, Urine; design: dose 20 mg/kg, route oral; conditions: in vivo
[6] = Cmax in rat at 10 mg/kg, po; assay type: ADME, organism-based; design: dose 10 mg/kg, route oral; conditions: in vivo
Canis familiaris [7] = test: Toxicity in dog assessed as effect on ECG intervals at 20 mg/kg, po after 3 hrs; assay type: organism-based, Canis lupus familiaris; design: dose 20 mg/kg, route oral; conditions: in vivo
[8] = Tmax in monkey at 2 mg/kg, po; assay type: ADME, organism-based, Macaca mulatta; design: dose 2 mg/kg, route oral; conditions: rhesus monkey, in vivo
[9] = biological target: Voltage-dependent N-type calcium channel subunit alpha-1B (Homo sapiens) (UniProt Q00975); test: Inhibition of calcium channel Cav2.2 at 10 uM by high throughput assay
[10] = Cmax in Wistar albino Glaxo rat model of absence epilepsy at 1 mg/kg; assay type: ADME, organism-based; design: dose 1 mg/kg; conditions: in vivo
[11] = AUC (0 to 4 hrs) in Wistar albino Glaxo rat model of absence epilepsy at 3 mg/kg; assay type: ADME, organism-based; design: time < 4 hr, dose 3 mg/kg; conditions: in vivo
[12] = biological target: Voltage-dependent T-type calcium channel subunit alpha-1G (Homo sapiens) (UniProt O43497); test: Antagonist activity at T type calcium channel Cav3.1 alpha-1G at -100 mV by voltage-clamp electrophysiology assay; assay type: functional
[13] = Half life in monkey at 0.5 mg/kg, iv; assay type: ADME, organism-based, Macaca mulatta; design: dose 0.5 mg/kg, route intravenous; conditions: rhesus monkey, in vivo
[14] = biological target: Voltage-dependent T-type calcium channel subunit alpha-1I (Homo sapiens) (UniProt Q9P0X4); test: Antagonist activity at T type calcium channel Cav3.3 alpha1i at -60 mV by FLIPR assay; assay type: functional
Chain of Voltage-dependent T-type calcium channel subunit alpha-1I (Homo sapiens) (Q9P0X4 whole entry): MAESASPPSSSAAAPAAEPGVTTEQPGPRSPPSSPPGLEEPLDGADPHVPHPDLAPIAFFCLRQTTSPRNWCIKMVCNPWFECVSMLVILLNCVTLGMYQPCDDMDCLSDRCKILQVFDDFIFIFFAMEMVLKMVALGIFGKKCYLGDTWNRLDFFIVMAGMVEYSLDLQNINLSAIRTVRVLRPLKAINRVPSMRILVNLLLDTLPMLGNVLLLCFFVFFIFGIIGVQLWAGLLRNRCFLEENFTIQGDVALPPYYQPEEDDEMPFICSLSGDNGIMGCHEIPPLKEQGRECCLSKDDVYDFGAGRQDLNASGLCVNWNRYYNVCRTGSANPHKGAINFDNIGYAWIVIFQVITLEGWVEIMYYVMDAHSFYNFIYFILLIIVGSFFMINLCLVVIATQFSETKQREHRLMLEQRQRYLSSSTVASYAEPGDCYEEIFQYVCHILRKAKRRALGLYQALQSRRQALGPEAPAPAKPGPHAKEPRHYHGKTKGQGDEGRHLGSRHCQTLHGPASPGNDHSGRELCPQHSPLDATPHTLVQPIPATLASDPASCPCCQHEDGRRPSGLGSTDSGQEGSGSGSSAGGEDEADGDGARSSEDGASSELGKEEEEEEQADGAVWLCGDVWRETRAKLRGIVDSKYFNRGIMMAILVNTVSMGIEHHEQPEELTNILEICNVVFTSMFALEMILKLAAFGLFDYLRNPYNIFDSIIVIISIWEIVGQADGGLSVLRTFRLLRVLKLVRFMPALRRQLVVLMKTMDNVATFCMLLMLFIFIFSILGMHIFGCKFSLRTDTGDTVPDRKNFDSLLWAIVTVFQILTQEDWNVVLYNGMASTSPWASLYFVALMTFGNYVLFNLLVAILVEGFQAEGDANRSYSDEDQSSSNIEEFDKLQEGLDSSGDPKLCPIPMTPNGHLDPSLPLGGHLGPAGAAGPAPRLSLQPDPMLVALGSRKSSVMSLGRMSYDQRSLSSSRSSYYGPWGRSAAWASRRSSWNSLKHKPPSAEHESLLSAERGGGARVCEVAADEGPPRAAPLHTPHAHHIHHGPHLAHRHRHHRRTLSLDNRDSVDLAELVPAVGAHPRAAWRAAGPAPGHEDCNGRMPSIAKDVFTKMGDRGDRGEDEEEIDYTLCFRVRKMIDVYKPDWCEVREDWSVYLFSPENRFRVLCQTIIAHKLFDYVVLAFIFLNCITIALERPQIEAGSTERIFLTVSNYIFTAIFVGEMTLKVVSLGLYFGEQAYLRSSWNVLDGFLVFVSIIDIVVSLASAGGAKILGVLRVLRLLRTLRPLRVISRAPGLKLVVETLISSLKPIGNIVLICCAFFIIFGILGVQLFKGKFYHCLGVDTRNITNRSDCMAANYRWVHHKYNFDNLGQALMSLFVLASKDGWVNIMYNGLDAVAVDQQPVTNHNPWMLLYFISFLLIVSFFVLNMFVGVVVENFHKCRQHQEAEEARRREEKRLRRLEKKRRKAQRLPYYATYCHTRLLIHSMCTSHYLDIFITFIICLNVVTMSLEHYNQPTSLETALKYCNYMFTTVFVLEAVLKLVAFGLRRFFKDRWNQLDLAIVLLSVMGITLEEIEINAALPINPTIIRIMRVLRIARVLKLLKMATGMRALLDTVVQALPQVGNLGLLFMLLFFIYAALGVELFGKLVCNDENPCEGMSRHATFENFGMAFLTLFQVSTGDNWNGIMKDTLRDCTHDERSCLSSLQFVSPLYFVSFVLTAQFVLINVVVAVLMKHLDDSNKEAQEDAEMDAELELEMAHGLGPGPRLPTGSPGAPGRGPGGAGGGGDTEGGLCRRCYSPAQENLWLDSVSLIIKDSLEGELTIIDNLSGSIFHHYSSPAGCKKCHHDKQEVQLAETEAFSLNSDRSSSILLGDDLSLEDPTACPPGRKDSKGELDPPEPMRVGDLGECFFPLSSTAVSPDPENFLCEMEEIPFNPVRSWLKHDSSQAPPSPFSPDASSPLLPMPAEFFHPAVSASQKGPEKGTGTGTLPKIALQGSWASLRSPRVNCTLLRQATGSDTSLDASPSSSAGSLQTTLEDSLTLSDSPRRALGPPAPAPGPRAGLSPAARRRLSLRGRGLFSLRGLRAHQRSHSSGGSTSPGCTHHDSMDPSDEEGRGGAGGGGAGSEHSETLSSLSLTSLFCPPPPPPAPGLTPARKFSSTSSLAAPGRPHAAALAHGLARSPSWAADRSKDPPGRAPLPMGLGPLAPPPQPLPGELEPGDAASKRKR

Canis familiaris [15] = test: Toxicity in dog assessed as effect on blood pressure at 20 mg/kg, po after 3 hrs; assay type: organism-based, Canis lupus familiaris; design: dose 20 mg/kg, route oral; conditions: in vivo
[16] = Ratio of drug level in brain to plasma in rat after 9 hrs; assay type: ADME, cell-free
Canis familiaris [17] = test: Toxicity in dog assessed as increase in heart rate at 20 mg/kg, po after 3 hrs; assay type: organism-based, Canis lupus familiaris; design: dose 20 mg/kg, route oral; conditions: in vivo
[18] = Clearance in rat at 1 mg/kg, iv; assay type: ADME, organism-based; design: dose 1 mg/kg, route intravenous; conditions: in vivo
[19] = Half life in rat at 1 mg/kg, iv; assay type: ADME, organism-based; design: dose 1 mg/kg, route intravenous; conditions: in vivo
[20] = Antagonist activity at sigma receptor in guinea pig vas deferens at 30 uM; assay type: functional, Cavia porcellus; design: scale not given: the % may be the effect or the level left
[21] = Clearance in monkey at 0.5 mg/kg, iv; assay type: ADME, organism-based, Macaca mulatta; design: dose 0.5 mg/kg, route intravenous; conditions: rhesus monkey, in vivo
[22] = AUC (0 to 24 hrs) in dog at 1 mg/kg, po; assay type: ADME, organism-based, Canis lupus familiaris; design: time < 24 hr, dose 1 mg/kg, route oral; conditions: plasma
Canis familiaris [23] = test: Toxicity in dog assessed as effect on glomerular filtration at 20 mg/kg, po after 3 hrs; assay type: organism-based, Canis lupus familiaris; design: dose 20 mg/kg, route oral; conditions: in vivo
[24] = Tmax in rat at 10 mg/kg, po; assay type: ADME, organism-based; design: dose 10 mg/kg, route oral; conditions: in vivo
[25] = AUC (0 to 4 hrs) in Wistar albino Glaxo rat model of absence epilepsy at 10 mg/kg; assay type: ADME, organism-based; design: time < 4 hr, dose 10 mg/kg; conditions: in vivo
Canis familiaris [26] = test: Drug level in dog plasma at 20 mg/kg, po; assay type: ADME, organism-based, Canis lupus familiaris; design: dose 20 mg/kg, route oral; conditions: in vivo, read-out: Drug uptake
[27] = Cmax in Wistar albino Glaxo rat model of absence epilepsy at 10 mg/kg; assay type: ADME, organism-based; design: dose 10 mg/kg; conditions: in vivo
[28] = biological target: Voltage-dependent T-type calcium channel subunit alpha-1H (Homo sapiens) (UniProt O95180); test: Antagonist activity at T type calcium channel Cav3.2 alpha-1H at -100 mV by voltage-clamp electrophysiology assay; assay type: functional
Chain of Voltage-dependent T-type calcium channel subunit alpha-1H (Homo sapiens) (O95180 whole entry): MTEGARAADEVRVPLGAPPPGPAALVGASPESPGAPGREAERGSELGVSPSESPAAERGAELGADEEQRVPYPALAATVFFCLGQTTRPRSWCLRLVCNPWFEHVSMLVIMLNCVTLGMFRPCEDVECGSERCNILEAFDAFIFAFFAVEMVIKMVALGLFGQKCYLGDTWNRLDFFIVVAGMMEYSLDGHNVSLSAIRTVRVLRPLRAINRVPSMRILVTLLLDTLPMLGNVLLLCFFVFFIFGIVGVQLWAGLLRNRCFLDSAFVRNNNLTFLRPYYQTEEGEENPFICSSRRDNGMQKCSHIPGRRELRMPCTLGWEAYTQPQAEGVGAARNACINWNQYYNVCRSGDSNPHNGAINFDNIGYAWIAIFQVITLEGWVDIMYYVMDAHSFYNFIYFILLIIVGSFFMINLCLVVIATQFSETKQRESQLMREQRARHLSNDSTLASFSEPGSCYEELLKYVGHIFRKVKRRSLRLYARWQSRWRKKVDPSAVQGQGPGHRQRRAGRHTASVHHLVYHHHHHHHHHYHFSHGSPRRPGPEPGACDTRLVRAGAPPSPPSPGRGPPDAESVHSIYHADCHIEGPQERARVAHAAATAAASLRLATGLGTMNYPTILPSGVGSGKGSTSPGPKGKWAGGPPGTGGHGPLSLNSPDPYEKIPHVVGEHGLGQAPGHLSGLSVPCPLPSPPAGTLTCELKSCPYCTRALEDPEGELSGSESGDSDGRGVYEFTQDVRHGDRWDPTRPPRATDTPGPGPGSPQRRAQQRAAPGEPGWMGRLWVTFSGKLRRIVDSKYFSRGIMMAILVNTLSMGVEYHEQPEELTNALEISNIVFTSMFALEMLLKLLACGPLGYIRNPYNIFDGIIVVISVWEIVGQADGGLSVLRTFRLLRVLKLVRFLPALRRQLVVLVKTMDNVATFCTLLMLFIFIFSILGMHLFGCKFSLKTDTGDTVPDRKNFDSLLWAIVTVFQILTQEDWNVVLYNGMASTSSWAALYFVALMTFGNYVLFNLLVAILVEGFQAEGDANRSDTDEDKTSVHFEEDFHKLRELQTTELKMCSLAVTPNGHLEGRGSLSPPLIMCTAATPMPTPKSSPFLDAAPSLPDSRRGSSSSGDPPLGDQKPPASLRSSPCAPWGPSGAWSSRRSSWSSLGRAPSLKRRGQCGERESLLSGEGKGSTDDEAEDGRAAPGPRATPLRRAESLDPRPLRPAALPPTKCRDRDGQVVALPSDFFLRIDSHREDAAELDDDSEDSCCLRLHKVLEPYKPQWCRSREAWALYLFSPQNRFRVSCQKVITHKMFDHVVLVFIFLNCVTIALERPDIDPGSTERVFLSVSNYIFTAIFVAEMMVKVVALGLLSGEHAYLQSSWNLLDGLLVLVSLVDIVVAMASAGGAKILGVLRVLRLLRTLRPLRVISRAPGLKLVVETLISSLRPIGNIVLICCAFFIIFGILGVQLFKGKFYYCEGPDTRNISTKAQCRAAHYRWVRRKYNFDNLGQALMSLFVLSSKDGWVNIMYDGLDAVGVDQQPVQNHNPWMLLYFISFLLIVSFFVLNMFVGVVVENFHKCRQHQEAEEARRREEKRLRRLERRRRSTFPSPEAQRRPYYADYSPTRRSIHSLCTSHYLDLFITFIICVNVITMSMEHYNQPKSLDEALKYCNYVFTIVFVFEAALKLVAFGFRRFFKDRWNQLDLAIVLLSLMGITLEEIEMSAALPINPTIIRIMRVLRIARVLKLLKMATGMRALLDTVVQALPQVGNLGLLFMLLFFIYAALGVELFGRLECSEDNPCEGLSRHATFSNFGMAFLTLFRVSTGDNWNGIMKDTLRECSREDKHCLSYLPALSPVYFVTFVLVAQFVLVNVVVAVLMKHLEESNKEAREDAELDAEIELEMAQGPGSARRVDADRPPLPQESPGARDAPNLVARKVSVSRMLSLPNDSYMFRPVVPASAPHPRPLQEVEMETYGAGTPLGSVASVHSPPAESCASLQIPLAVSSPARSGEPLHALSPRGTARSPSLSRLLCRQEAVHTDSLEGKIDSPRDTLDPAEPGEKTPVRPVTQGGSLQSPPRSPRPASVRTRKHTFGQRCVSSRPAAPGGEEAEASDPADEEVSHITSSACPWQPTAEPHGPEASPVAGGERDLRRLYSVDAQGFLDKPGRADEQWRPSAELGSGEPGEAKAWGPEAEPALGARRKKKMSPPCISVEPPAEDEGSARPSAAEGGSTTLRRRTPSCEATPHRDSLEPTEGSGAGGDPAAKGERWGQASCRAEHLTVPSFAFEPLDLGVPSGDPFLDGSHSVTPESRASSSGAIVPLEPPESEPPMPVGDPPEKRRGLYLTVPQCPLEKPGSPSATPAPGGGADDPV

[29] = Tmax in dog at 1 mg/kg, po; assay type: ADME, organism-based, Canis lupus familiaris; design: dose 1 mg/kg, route oral; conditions: in vivo
Rattus norvegicus [30] = species: Rattus norvegicus; test: Decrease in tremor activity in harmaline-induced rat model; assay type: functional, organism-based
[31] = Antagonist activity at T type calcium channel at -100 mV by voltage-clamp electrophysiology assay; assay type: functional
[32] = Clearance in dog at 0.5 mg/kg, iv; assay type: ADME, organism-based, Canis lupus familiaris; design: dose 0.5 mg/kg, route intravenous; conditions: in vivo
[33] = Inhibition of sodium channel site 2 by binding assay
[34] = Cmax in Wistar albino Glaxo rat model of absence epilepsy at 3 mg/kg; assay type: ADME, organism-based; design: dose 3 mg/kg; conditions: in vivo
[35] = Antagonist activity at T type calcium channel at -80 mV by voltage-clamp electrophysiology assay; assay type: functional
[36] = Drug level in dog plasma at 1.29 mg/kg, iv measured at end of 60 mins infusion; assay type: ADME, organism-based, Canis lupus familiaris; design: dose 1.29 mg/kg, route intravenous; conditions: read-out: Drug uptake
[37] = biological target: Sodium channel protein type 5 subunit alpha (Homo sapiens, UniProt Q14524); test: Inhibition of sodium channel Nav1.5 by voltage-clamp method
[38] = Drug level in dog plasma at 4.30 mg/kg, iv measured at end of 60 mins infusion; assay type: ADME, organism-based, Canis lupus familiaris; design: dose 4.3 mg/kg, route intravenous; conditions: 4.3 mg/kg, read-out: Drug uptake
[39] = biological target: Voltage-dependent T-type calcium channel subunit alpha-1I (Homo sapiens) (UniProt Q9P0X4); test: Antagonist activity at T type calcium channel Cav3.3 alpha1i at -20 mV by FLIPR assay; assay type: functional
[40] = Half life in dog at 0.5 mg/kg, iv; assay type: ADME, organism-based, Canis lupus familiaris; design: dose 0.5 mg/kg, route intravenous; conditions: in vivo
[41] = Cmax in dog at 1 mg/kg, po; assay type: ADME, organism-based, Canis lupus familiaris; design: dose 1 mg/kg, route oral; conditions: in vivo
[42] = Volume of distribution at steady state in monkey at 0.5 mg/kg, iv; assay type: ADME, organism-based, Macaca mulatta; design: dose 0.5 mg/kg, route intravenous; conditions: rhesus monkey, in vivo, read-out: Vdss
[43] = AUC (0 to 24 hrs) in rat at 10 mg/kg, po; assay type: ADME, organism-based; design: time < 24 hr, dose 10 mg/kg, route oral; conditions: plasma
Canis familiaris [44] = test: Toxicity in dog assessed as effect on urine flow at 20 mg/kg, po after 3 hrs; assay type: organism-based, Canis lupus familiaris; design: dose 20 mg/kg, route oral; conditions: in vivo
[45] = AUC (0 to 4 hrs) in Wistar albino Glaxo rat model of absence epilepsy at 1 mg/kg; assay type: ADME, organism-based; design: time < 4 hr, dose 1 mg/kg; conditions: in vivo
[46] = Oral bioavailability in monkey at 2 mg/kg; assay type: ADME, organism-based, Macaca mulatta; conditions: rhesus monkey, in vivo
Canis familiaris [47] = test: Toxicity in dog assessed as effect on plasma electrolytes at 20 mg/kg, po after 3 hrs; assay type: organism-based, Canis lupus familiaris; design: dose 20 mg/kg, route oral; conditions: in vivo
[48] = AUC (0 to 24 hrs) in monkey at 2 mg/kg, po; assay type: ADME, organism-based, Macaca mulatta; design: time < 24 hr, dose 2 mg/kg, route oral; conditions: rhesus monkey, plasma
[49] = Binding affinity to sigma receptor
[50] = Protein binding in dog plasma; assay type: ADME, cell-free, Canis lupus familiaris; conditions: read-out: PPB
[51] = Oral bioavailability in rat at 10 mg/kg; assay type: ADME, organism-based; conditions: in vivo
[52] = Oral bioavailability in dog at 1 mg/kg; assay type: ADME, organism-based, Canis lupus familiaris; conditions: in vivo
[53] = Protein binding in rat plasma; assay type: ADME, cell-free; conditions: read-out: PPB (converted)
[54] = Ratio of drug level in cerebrospinal fluid to plasma in rat after 9 hrs; assay type: ADME, CSF/Plasma
Canis familiaris [55] = test: Toxicity in dog assessed as effect on renal plasma flow at 20 mg/kg, po after 3 hrs; assay type: organism-based, Canis lupus familiaris; design: dose 20 mg/kg, route oral; conditions: in vivo
[56] = Cmax in monkey at 2 mg/kg, po; assay type: ADME, organism-based, Macaca mulatta; design: dose 2 mg/kg, route oral; conditions: rhesus monkey, in vivo
[57] = biological target: Voltage-gated inwardly rectifying potassium channel KCNH2 (Homo sapiens, UniProt Q12809)
[58] = Binding affinity to L type calcium channel by binding assay

## CC1(C)C[C@@H](CN2CCC(F)(CNC(=O)c3cc(Cl)cc(Cl)c3)CC2)CCO1
[1]
  Vd: 1 L/kg
Rattus norvegicus [2]
  inhibition (INH): 81%
[3]
  Vd: 10 L/kg
[4]
  fraction unbound: 0.025
Canis familiaris [5]
  Activity: Non-toxic
[6]
  Cmax: 480 nM
Canis familiaris [7]
  Activity: Non-toxic
[8]
  Tmax: 1.5 h
[9]
  inhibition: 18%
[10]
  Cmax: 60 nM
[11]
  AUC(0-t) at 4 h: 0.54 µM·h
[12]
  Activity: 93 nM
[13]
  half-life: 198 min
[14]
  Activity: 181 nM
Canis familiaris [15]
  Activity: Non-toxic
[16]
  Kp at 9 h: 6
Canis familiaris [17]
  Activity: Toxic
[18]
  clearance: 75 mL/min/kg
[19]
  half-life: 108 min
[20]
  Activity: 30%
[21]
  clearance: 13.6 mL/min/kg
[22]
  AUC(0-t) at 24 h: 15.8 µM·h
Canis familiaris [23]
  Activity: Non-toxic
[24]
  Tmax: 42 min
[25]
  AUC(0-t) at 4 h: 2.96 µM·h
Canis familiaris [26]
  concentration: 34.5 µM
[27]
  Cmax: 1000 nM
[28]
  Activity: 196 nM
[29]
  Tmax: 3.1 h
Rattus norvegicus [30]
  Activity: Dose-dependent effect
[31]
  Activity: 84 nM
[32]
  clearance: 2.3 mL/min/kg
[33]
  IC50: 1900 nM
[34]
  Cmax: 190 nM
[35]
  Activity: 115 nM
[36]
  concentration at 1 h: 1500 nM
[37]
  IC50: 84 µM
[38]
  concentration at 1 h: 4.6 µM
[39]
  Activity: 84 nM
[40]
  half-life: 282 min
[41]
  Cmax: 2180 nM
[42]
  Vd: 3.8 L/kg
[43]
  AUC(0-t) at 24 h: 1.94 µM·h
Canis familiaris [44]
  Activity: Non-toxic
[45]
  AUC(0-t) at 4 h: 0.15 µM·h
[46]
  bioavailability: 44%
Canis familiaris [47]
  Activity: Non-toxic
[48]
  AUC(0-t) at 24 h: 3.2 µM·h
[49]
  Ki: < 100 nM
[50]
  fraction unbound: 0.01
[51]
  bioavailability: 36%
[52]
  bioavailability: 87%
[53]
  fraction unbound: 0.057
[54]
  Kp at 9 h: 2.8
Canis familiaris [55]
  Activity: Non-toxic
[56]
  Cmax: 580 nM

## CC(C)(C)CCN1CCC(F)(CNC(=O)c2cc(Cl)cc(Cl)c2)CC1
[14]
  Activity: 64 nM
[57]
  IC50: 2220 nM
[39]
  Activity: 66 nM
[58]
  IC50: 940 nM

## CC1(C)CC(CN2CCC(F)(CNC(=O)c3cc(Cl)cc(Cl)c3)CC2)CCO1 (racemic)
[14]
  Activity: 333 nM
[39]
  Activity: 145 nM

## CC(C)(C)CCN1CCC(CNC(=O)c2cc(Cl)cc(Cl)c2)CC1
[14]
  Activity: 98 nM

## CC1(C)C[C@H](CN2CCC(F)(CNC(=O)c3cc(Cl)cc(Cl)c3)CC2)CCO1
Rattus norvegicus [2]
  inhibition (INH): 63%
[14]
  Activity: 297 nM
[39]
  Activity: 94 nM
